Experiment [1] concerns contraction induced by arachidonic acid. Briefly: Arachidonic acid-induced contraction of isolated stomach fundus strip. Set-up: species or system Sprague-Dawley rats. Particulars: rat stomach fundus strip, arachidonic acid 1.0×10^-5 g/ml as spasmogen, compound added 15 minutes before. How it is done: The stomach was removed from Sprague-Dawley rats, weighing about 180 g., after the animals were fasted overnight. A strip of stomach fundus was suspended under initial tension of 0.6 g. in a 10 ml. organ bath containing Tyrode solution. Arachidonic acid (1.0×10^-5 g/ml.) was employed as the spasmogen. Several doses of the test compound were added to the individual bath fluid 15 minutes before the addition of arachidonic acid. The value of contraction induced by arachidonic acid was measured and plotted dose-activity curve. ED50 value of each test compound was obtained by interpolation from the dose-activity curve.

Experiment [2] can be described thus: Rectal temperature in saline-treated rats. The class given is in vivo, male SD strain rats. How it is done:
(§1) Male SD strain rats aged 6 weeks, weighing 164-235 g, were divided into 4 groups i.e. A, B, A' and B' of 10 animals each and were treated as shown below:
(§2) Group A saline 0.5% methylcellulose
(§3) Group B 5% Brewer's yeast
(§4) Group A' saline Test substance
(§5) Group B' 5% Brewer's yeast
(§6) The test substance or 0.5%MC were given orally to rats 4 hr after subcutaneous injection of 5% Brewer's yeast or saline. The rectal temperature was measured with a thermister probe inserted about 4.5-5.0 cm into the rectum 4 hr before, and 1 and 2 hr after the injection of test substance.
(§7) All experiments were performed at an ambient temperature of 22.0°-22.5° C.
(§8) Test substance, the compound obtained in the Example 5-(2) was dissolved in 0.5%MC at a dose of 10 mg/kg and 100 mg/kg, and also suspended in 0.5%MC at a dose of 320 mg/kg, and Brewer's yeast was suspended in saline.
(§9) Statistics: Calculation of ED50 value according to the Litchfield-Wilcoxon's method was performed with a computer program. Statistic analysis of difference between the control and treated groups according to the Student's t-test or Cochran-Cox test was performed with a computer program.

Another experiment has as its system erythema. Briefly: UV-induced erythema test (number of rats estimated as effective). In kind it is in vivo, male Hartley rats. As to conditions: oral, ten rats per group, half 1 h before and half just after UV radiation, scored 2 h later. How it is done: Ten male 5 week old Hartley rats, each weighing about 350 g. were used per group. The backs of each animal were depilated 24 hours before the test. An adhesive tape with 3 small holes of 9 mm. diameter was placed on the depilated skin and then the animal was exposed to ultra-violet radiation from an ultra-violet lamp (500 W, manufactured by Engelhard Hanovia Inc.) at a distance of 13 cm. for 80 seconds. Two hours later, the degree of erythema was estimated on the basis of the following scores:
1.0: erythema with clear border,
0.5: erythema with unclear border,
The drugs were regarded as being effective when the total of 3 points was below 1.5.
Each dosage of the test compound was administered orally in a suspension form in 20 ml. of 0.5% methyl cellosolve aqueous solution. Half of the test sample was administered one hour before the radiation and the remaining half of the test solution was administered just after radiation.

Experiment [3] has as its system Brewer's yeast-induced hyperthermia. The experiment in a line: Brewer's yeast-induced hyperthermia (antipyretic effect). In kind it is in vivo, male SD strain rats. Particulars: oral; for ED50: Rattus norvegicus. The protocol:
as §1, §2, §3, §4, §5, §6
The antipyretic effect (%) of test substance on the Brewer's yeast-induced hyperthermia at 1 and 2 hr after the injection of test substance was calculated from the mean rectal temperature (rectal temp.) in each group by the following formula: [formula]
as §7, §8, §9

A further experiment has as its system writhing syndrome. Briefly: Acetic acid-induced writhing syndrome. In kind it is in vivo, male ddy strain mice. As to conditions: oral. How it is done:
Male ddy strain mice, weighing 24.0-32.0 g, were used. Each dose group consisted of 10 animals. Writhing syndrome was produced by an intraperitoneal injection of 20 ml/kg of 0.6% acetic acid. […] The drug were given orally 60 minutes before acetic acid. The frequency of writhing syndrome for 10 minutes in the treated animals was compared with that in the control. Control animals received the vehicle.
The test substances, the compound obtained in the Example 5-(2) was suspended in 0.5% methylcellulose.
ED50 value was calculated according to the Litchfield-Wilcoxon's method with a computer program.
(An intraperitoneal irritant provokes the stretching counted in writhing tests.)

Molecules are shown by their SMILES.

`Nc1c(CC(=O)[O-])cccc1Oc1c(Cl)cccc1Cl.[Na+]` [Example 19, sodium 2-[2-amino-3-(2,6-dichlorophenoxy)phenyl]acetate]: in experiment [1], the ED50 is 2.4 µg/mL.
On the same count and under the same terms, the value for `Nc1c(CC(=O)[O-])cccc1Oc1cccc(Cl)c1.[Na+]` [Example 4 - (2), sodium 2-[2-amino-3-(3-chlorophenoxy)phenyl]acetate] was 1.7 µg/mL.
As for `Nc1c(CC(=O)[O-])cccc1Oc1ccccc1Cl.[Na+]` [Example 5 - (2), sodium 2-[2-amino-3-(2-chlorophenoxy)phenyl]acetate], the rectal temperature change entry in experiment [2] (10 mg/kg, 1 hr, slight but significant) is recorded as “produced a rise”; in experiment [2] (100 mg/kg, 2 hr), “significant fall of the rectal temperature”; in experiment [2] (320 mg/kg, 1 hr, slight but significant), “produced a fall of the rectal temperature”; in experiment [2] (320 mg/kg, 2 hr) it was “significant fall of the rectal temperature”. Also, the “Number of rats estimated as effective” value with erythema (2 mg/kg) is listed as 8 rats; in the experiment on erythema (10 mg/kg), 10 rats. Moreover, the ED50 was determined as 37.3 mg/kg in experiment [3] (1 hr after administration); 12.8 mg/kg in experiment [3] (2 hr after administration); 1.3 µg/mL in experiment [1]; 19.6 mg/kg in the experiment with writhing syndrome (Mus musculus, 60 minutes before acetic acid, writhing 3 to 13 minutes after acetic acid, read-out: ED50 value (inhibition of writhing)). For the same compound, the “antipyretic effect on the Brewer's yeast-induced hyperthermia” value in experiment [3] (all doses (10, 100, 320 mg/kg), 1 and 2 hr after administration) is on record as “showed the antipyretic effect on the Brewer's yeast-induced hyperthermia”. In the experiment with writhing syndrome, the “effect on the writhing syndrome caused by acetic acid” value is “dose-related inhibiting effects on the writhing syndrome”.
On to `Cc1ccccc1Oc1cccc(CC(=O)[O-])c1N.[Na+]` [Example 10 - (2), sodium 2-[2-amino-3-(o-tolyloxy)phenyl]acetate], for which the “Number of rats estimated as effective” value is listed as 5 rats in the experiment on erythema (2 mg/kg) and 10 rats with erythema (10 mg/kg). In addition, the ED50 in experiment [1] stood at 2.5 µg/mL.
`Nc1c(CC(=O)[O-])cccc1Oc1ccccc1F.[Na+]` [Example 2 - (2), sodium 2-[2-amino-3-(2-fluorophenoxy)phenyl]acetate]: the “Number of rats estimated as effective” value in the experiment with erythema (2 mg/kg) is listed as 9 rats; with erythema (10 mg/kg) it was 10 rats. This compound registered an ED50 in experiment [1] of 1.6 µg/mL.
In experiment [1], `Nc1c(CC(=O)[O-])cccc1Oc1cc(Cl)cc(Cl)c1.[Na+]` [Example 7 - (2), sodium 2-[2-amino-3-(3,5-dichlorophenoxy)phenyl]acetate] showed an ED50 of 0.16 µg/mL.

Values taken from US4472433A, “Phenoxyphenyl acetic acids and their medicinal use” (Fujisawa Pharmaceutical Co., Ltd., priority 1978, dated 1984).
